{"source": "paper PMC4474554", "about": "(PLoS ONE, 2015)", "key": {"[1]": {"test_system": "PKB/AKT", "parameters": "method as in earlier work", "details": "updated data; cited from earlier work"}, "[2]": {"test_system": "phospho-IGF-IR", "test": "Western blotting, IGF-IR phosphorylation in NSCLC cell lines", "assay_type": "cell-based", "details": "up to a concentration of 5 μM; PC-9, HCC827, NCI-H1975, RPC-9, NCI-H1299, NCI-H1819", "description": "(§1) Next, they were washed out with cold PBS and lysed in 1 × cell lysis buffer [20 mM Tris-HCl (pH 7.5), 150 mM NaCl, 1 mM Na2EDTA, 1 mM EGTA, 1% Triton, 2.5 mM sodium pyrophosphate, 1 mM beta-glycerophosphate, 1 mM Na3VO4, 1 μg/ml leupeptin] (Cell signaling Technology) supplemented with Complete, Mini (Roche, Basel, Switzerland) to extract protein. After the protein concentration was measured, equal amounts of total protein (30 μg) were separated by SDS-PAGE and transferred to PVDF membranes. The proteins on membranes were incubated overnight at 4°C with the primary antibodies. The following secondary antibodies were used: goat antirabbit or antimouse IgG-conjugated horseradish peroxidase (HRP) (Santa Cruz Biotechnology, Santa Cruz, CA). To detect specific signals, the membranes were incubated by ECL plus Western Blotting Detection Reagents (Amersham Biosciences UK Limited, Buckinghamshire, UK)."}, "[3]": {"test_system": "RPC-9 xenograft", "test": "RPC-9 xenograft mouse model", "assay_type": "in vivo, BALB/c-nu/nu female nude mice", "details": "oral, once a day, 14 days, 30, 60 and 90 mg/kg, dose-dependent", "description": "(§2) In this experiment, we used BALB/c-nu/nu female nude mice at 4–6 weeks of age that were purchased from Charles River Laboratories Japan, Inc (Yokohama, Japan). They were maintained under specific-pathogen-free conditions in accordance with the guidelines of the Animal Care and Use Committee at Okayama University. […] Every three days, body weight of the mice and the major axis and minor axis of each tumor were measured and calculated tumor volume using the following formula; (major axis) × (minor axis)^2 × 1/2 [37, 38]. For the 14 days, tumor volume, tumor growth rate and the body weight were analyzed as an average of the each group."}, "[4]": {"test_system": "PC-9", "test": "MTS assay, PC-9"}, "[5]": {"test_system": "PC-9 xenograft", "test": "PC-9 xenograft mouse model", "assay_type": "in vivo, BALB/c-nu/nu female nude mice", "details": "oral, once a day, 14 days, 30, 60 and 90 mg/kg, dose-dependent", "description": "as §2"}, "[6]": {"test_system": "IGF-1R", "parameters": "method as in earlier work", "details": "updated data; cited from earlier work"}, "[7]": {"test_system": "A549", "test": "MTS assay, A549"}, "[8]": {"test_system": "HCC827", "assay_type": "cell-based", "description": "(§3) Drug sensitivity was determined by a modified MTS assay with CellTiter 96 AQueous One Solution Reagent (Promega, Madison, WI). Cells were generally seeded on 96-well plates at a density that would yield 80% confluence by the completion of the experiment, varying by each cell line from 3000 to 4000 per well. […] After that, MTS dye was added to each well. The cultures were incubated for another 1 hour at 37°C in a humidified atmosphere with 5% CO2. Optical densities of samples were measured at 490 nm using Immuno Mini NJ-2300 (Nalge Nunc International KK, Rochester, NY). Mean optical density at each drug concentration was calculated after discarding the highest and lowest values. […] IC50 values were expressed as mean and standard deviations. The assays were repeated until the standard deviation became less than the mean."}, "[9]": {"test_system": "HEK-293T with mutant EGFR (L858R)", "assay_type": "cell-based", "description": "as §3"}, "[10]": {"test_system": "Flt-1", "parameters": "method as in earlier work", "details": "updated data; cited from earlier work"}, "[11]": {"test_system": "MKN45", "test": "MTS assay, MKN45"}, "[12]": {"test_system": "Flt-3", "parameters": "method as in earlier work", "details": "updated data; cited from earlier work"}, "[13]": {"test_system": "c-Src", "details": "updated data; cited from earlier work"}, "[14]": {"test_system": "c-Raf", "parameters": "method as in earlier work", "details": "updated data; cited from earlier work"}, "[15]": {"test_system": "CDK1/cyclin B", "parameters": "method as in earlier work", "details": "updated data; cited from earlier work"}, "[16]": {"test_system": "c-Kit", "parameters": "method as in earlier work", "details": "updated data; cited from earlier work"}, "[17]": {"test_system": "phospho-FAK", "test": "Western blotting, FAK phosphorylation in NSCLC cell lines", "assay_type": "cell-based", "description": "as §1"}, "[18]": {"test_system": "phospho-EGFR and phospho-AKT", "test": "Western blotting, EGFR and AKT phosphorylation in transfected HEK-293T", "assay_type": "cell-based", "details": "HEK-293T cell with the mutant EGFR (L858R)", "description": "as §1"}, "[19]": {"test_system": "Insulin-R", "parameters": "method as in earlier work", "details": "updated data; cited from earlier work"}, "[20]": {"test_system": "phospho-EGFR and downstream AKT, MAPK", "test": "Western blotting, EGFR, AKT and MAPK phosphorylation in NSCLC cell lines", "assay_type": "cell-based", "description": "as §1"}, "[21]": {"test_system": "phospho-IGF-IR", "test": "Western blotting, IGF-IR phosphorylation after serum-starvation", "assay_type": "cell-based", "details": "PC-9, RPC-9, NCI-H1299, NCI-H1819; regardless of IGF-I ligand stimulation; TAE226 two hours", "description": "as §1"}, "[22]": {"test_system": "PDGFR", "parameters": "method as in earlier work", "details": "updated data; cited from earlier work"}, "[23]": {"test_system": "Flt-4", "parameters": "method as in earlier work", "details": "updated data; cited from earlier work"}, "[24]": {"test_system": "c-Met", "details": "updated data; cited from earlier work"}, "[25]": {"test_system": "Ret (M918T)", "parameters": "method as in earlier work", "details": "updated data; cited from earlier work"}, "[26]": {"details": "EGFR-mutant cell lines PC-9, HCC827, NCI-H1975, RPC-9"}}, "note": "Several values for one entry are separate records, joined by “and”; a condition that tells them apart may be missing. Equal values may be shown once. Entries after “also recorded” stand apart in the source; their conditions may differ. Read-outs that look alike come from different tables or passages of the source.", "data": [{"smiles": "CNC(=O)c1ccccc1Nc1nc(Nc2ccc(N3CCOCC3)cc2OC)ncc1Cl", "note": "[TAE226]", "values": [{"measurement": "IC50", "setting": "[1]", "result": "> 10000", "unit": "nM"}, {"measurement": "phosphorylation of IGF-IR (Tyr1131)", "setting": "[2]", "result": "not significantly inhibited; also recorded: not suppressed"}, {"measurement": "tumor volume / tumor growth compared with vehicle-treated mice", "setting": "[3]", "result": "significantly decreased; also recorded: significantly inhibited"}, {"measurement": "IC50", "setting": "[4]; read-out: IC50 (μM) (mean ± SD), PC-9, EGFR Exon 19 del (E746-A750), MTS, TAE226 48 hours, gefitinib 72 hours", "result": "0.16 ± 0.01", "unit": "µM"}, {"measurement": "IC50", "setting": "[4]; read-out: each IC50, PC-9, independent MTS assays", "result": "[…]"}, {"measurement": "IC50", "setting": "[4]; read-out: mean IC50, PC-9, mean of independent MTS assays", "result": 0.16, "unit": "µM"}, {"measurement": "tumor volume / tumor growth compared with vehicle-treated mice", "setting": "[5]", "result": "significantly decreased; also recorded: significantly inhibited"}, {"measurement": "IC50", "setting": "[6]", "result": "[…]"}, {"measurement": "IC50", "setting": "[7]; read-out: IC50 (μM) (mean ± SD), A549, KRAS Codon 12 (G12S), MTS, TAE226 48 hours, gefitinib 72 hours", "result": "1.4 ± 0.05", "unit": "µM"}, {"measurement": "IC50", "setting": "[7]; read-out: each IC50, A549, independent MTS assays", "result": "1.4 µM and 1.3 µM"}, {"measurement": "IC50", "setting": "[7]; read-out: mean IC50, A549, mean of independent MTS assays", "result": 1.4, "unit": "µM"}, {"measurement": "IC50", "setting": "[8]; HCC827, EGFR Exon 19 del (E746-A750), MTS, TAE226 48 hours, gefitinib 72 hours, read-out: IC50 (μM) (mean ± SD)", "result": "0.086 ± 0.01", "unit": "µM"}, {"measurement": "IC50", "setting": "[8]; HCC827, independent MTS assays, read-out: each IC50", "result": "0.061 µM and 0.095 µM and 0.09 µM and 0.1 µM"}, {"measurement": "IC50", "setting": "[9]; HEK293T-L858R, independent MTS assays, read-out: each IC50", "result": 0.43, "unit": "µM"}, {"measurement": "IC50", "setting": "[9]; Transfected HEK-293T, mutant EGFR (L858R), MTS, TAE226 48 hours, gefitinib 72 hours, read-out: IC50 (μM) (mean ± SD)", "result": "0.41 ± 0.06", "unit": "µM"}, {"measurement": "IC50", "setting": "[10]", "result": "[…]"}, {"measurement": "IC50", "setting": "[11]; read-out: IC50 (μM) (mean ± SD), MKN45 (gastric cancer), MET amplification, MTS, TAE226 48 hours", "result": "1.1 ± 0.06", "unit": "µM"}, {"measurement": "IC50", "setting": "[11]; read-out: each IC50, MKN45, independent MTS assays", "result": "1.04 µM and 1.16 µM"}, {"measurement": "IC50", "setting": "[12]", "result": "[…]"}, {"measurement": "IC50", "setting": "[13]", "result": 910, "unit": "nM"}, {"measurement": "IC50", "setting": "[14]", "result": "> 10000", "unit": "nM"}, {"measurement": "IC50", "setting": "[15]", "result": 540, "unit": "nM"}, {"measurement": "IC50", "setting": "[16]", "result": "> 10000", "unit": "nM"}, {"measurement": "concentration at which FAK phosphorylation was inhibited", "setting": "[17]; data not shown", "result": "[…]"}, {"measurement": "phosphorylation of FAK (Thy397)", "setting": "[17]; up to a concentration of 5 μM, PC-9, HCC827, NCI-H1975, RPC-9, NCI-H1299, NCI-H1819", "result": "not significantly inhibited; also recorded: not suppressed"}, {"measurement": "phosphorylations of EGFR and AKT", "setting": "[18]", "result": "inhibited"}, {"measurement": "IC50", "setting": "[19]", "result": 44, "unit": "nM"}, {"measurement": "phosphorylation of EGFR", "setting": "[20]; [26]", "result": "predominantly inhibited"}, {"measurement": "phosphorylations of AKT and MAPK", "setting": "[20]; [26]", "result": "inhibited"}, {"measurement": "phosphorylations of EGFR, AKT, and MAPK", "setting": "[20]; cell lines with wild-type EGFR (NCI-H1299 and NCI-H1819)", "result": "not inhibited"}, {"measurement": "phosphorylation of IGF-IR after serum-starvation", "setting": "[21]", "result": "completely inhibited"}, {"measurement": "IC50", "setting": "[22]", "result": 2600, "unit": "nM"}, {"measurement": "IC50", "setting": "[23]", "result": 220, "unit": "nM"}, {"measurement": "IC50", "setting": "[24]", "result": 160, "unit": "nM"}, {"measurement": "IC50", "setting": "[25]", "result": "[…]"}]}]}
